According to article PMC11277192 (International Journal of Molecular Sciences, 2024):

Columns and labels:
[1] = test system: MOR; set-up: method as in PMID 35412886; conditions: 10 µM; cited from earlier work
[2] = biological target: T1, mu-opioid receptor (MOR, OPRM1) (Homo sapiens, UniProt P35372); assay type: cell-based; conditions: for Increase in the met-enkephalin internalization signal: 10 µM compound, 30 min pre-treatment, then 1 µM met-enkephalin
T1 construct: host or cells: U2OS (methods); the results text b24 says CHO-K1
T1 sequence (P35372 whole entry): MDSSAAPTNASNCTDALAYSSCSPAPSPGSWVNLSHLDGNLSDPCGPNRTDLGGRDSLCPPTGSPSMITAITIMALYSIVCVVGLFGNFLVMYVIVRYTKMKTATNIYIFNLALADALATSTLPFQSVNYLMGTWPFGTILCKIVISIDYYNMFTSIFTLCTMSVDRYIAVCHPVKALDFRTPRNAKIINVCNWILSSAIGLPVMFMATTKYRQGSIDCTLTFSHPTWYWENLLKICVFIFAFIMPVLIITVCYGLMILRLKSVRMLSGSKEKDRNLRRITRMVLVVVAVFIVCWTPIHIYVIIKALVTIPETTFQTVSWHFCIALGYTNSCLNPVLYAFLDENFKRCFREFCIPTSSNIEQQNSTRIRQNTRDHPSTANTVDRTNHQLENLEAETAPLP
Protocol: For the MOR antagonist/NAM assay, PathHunter® OPRM1 (opioid receptor mu 1) total GPCR (G protein-coupled receptors) internalization U2OS cell lines were expanded from freezer stocks according to standard procedures. The cell line manual was followed for cell growth (including cell culture media and supplementation, cell handling and preparation, etc.), test procedures, and signal detection.
In summary, cells were seeded in a total volume of 20 µL (10,000 cells) into white-walled, 384-well microplates and incubated at 37 °C overnight prior to testing. After preparing a stock acetonitrile solution at a 1 mg/mL concentration of ligand, compound intermediate concentrations were achieved by a 10-point series of 3-fold compound serial dilutions in a compound dilution buffer in a separate dilution plate. The concentration of each dilution was prepared at 10× of the final screening concentration. […] A PerkinElmer Envision instrument was used for chemiluminescent signal detection.

[3] = biological target: T2, CB1 receptor (Homo sapiens, UniProt P21554); assay: CB1 antagonist cAMP assay (HitHunter cAMP XS+), CP55,940 challenge; assay type: cell-based; conditions: for Emax: CHO-K1, read-out: CB1 antagonist activity, % of the maximum response of AM251; for Concentration at which CB1 antagonist activity above the baseline appeared: CP55,940 1 nM, CHO-K1
T2 construct: host or cells: CHO-K1
T2 sequence (P21554 whole entry): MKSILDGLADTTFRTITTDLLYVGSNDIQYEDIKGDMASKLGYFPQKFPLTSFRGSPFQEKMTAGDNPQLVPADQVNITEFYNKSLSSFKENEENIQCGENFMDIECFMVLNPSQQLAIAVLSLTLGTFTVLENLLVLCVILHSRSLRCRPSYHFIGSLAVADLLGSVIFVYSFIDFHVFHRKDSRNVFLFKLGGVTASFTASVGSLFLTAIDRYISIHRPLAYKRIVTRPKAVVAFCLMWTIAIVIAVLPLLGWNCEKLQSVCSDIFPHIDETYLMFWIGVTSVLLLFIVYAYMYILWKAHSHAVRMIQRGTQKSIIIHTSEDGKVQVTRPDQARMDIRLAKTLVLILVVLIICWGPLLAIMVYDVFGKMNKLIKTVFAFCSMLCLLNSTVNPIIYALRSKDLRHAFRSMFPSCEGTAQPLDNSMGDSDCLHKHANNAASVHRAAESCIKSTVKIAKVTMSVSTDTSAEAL
Protocol: (§1) In summary, cells were seeded in a total volume of 20 µL (10,000 cells) into white-walled, 384-well microplates and incubated at 37 °C for the appropriate time prior to testing.
(§2) For the CB1 and CB2 antagonist assays, cells were pre-incubated with antagonists/compounds, followed by an agonist challenge at an ~EC80 concentration. Similar to the agonist assay, before adding the ligands, media were aspirated from cells and replaced with 15 µL 2:1 HBSS/10mM HEPES/cAMP XS+ Ab reagent. A total of 5 μL of 4× compound solution, prepared in a separate plate by a 10-point series of 3-fold compound serial dilutions in assay buffer (forskolin excluded), was added to the cells and incubated at 37 °C for 30 min. […] The assay signal was generated through incubation with 20 μL cAMP XS+ ED/CL lysis cocktail for one hour, followed by incubation with 20 μL cAMP XS+ EA reagent for three hours at room temperature. A PerkinElmer Envision instrument was used for chemiluminescent signal detection.

[4] = biological target: T3, CB2 receptor (Homo sapiens, UniProt P34972); assay: Radioligand binding assay, displacement of [3H]-CP55940 at CB2; conditions: 1 µM compound; 100% = 1 µM WIN55212-2
T3 construct: host or cells: CHO-K1 (from the C2 catalogue suffix and 'same protocol' as CB1)
T3 sequence (P34972 whole entry): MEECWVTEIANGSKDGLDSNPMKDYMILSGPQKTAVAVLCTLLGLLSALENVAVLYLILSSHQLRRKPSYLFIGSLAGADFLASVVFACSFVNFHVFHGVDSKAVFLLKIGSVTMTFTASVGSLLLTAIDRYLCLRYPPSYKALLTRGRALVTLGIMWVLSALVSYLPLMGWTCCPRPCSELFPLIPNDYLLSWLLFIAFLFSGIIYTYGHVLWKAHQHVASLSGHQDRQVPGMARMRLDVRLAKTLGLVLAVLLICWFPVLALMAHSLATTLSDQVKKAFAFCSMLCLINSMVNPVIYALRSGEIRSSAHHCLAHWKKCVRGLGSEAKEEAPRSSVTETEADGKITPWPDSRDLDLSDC
Protocol: A total of 750 nl of the reference and test compounds was transferred to a 96-well compound plate, and 150 µL assay buffer was added to each well to achieve a 5× final concentration. The plates were centrifuged for 30 s at 1000 rpm and then agitated at 600 rpm and room temperature for 5 min.
Separately, 50 µL of 0.5% v/v PEI was added to each well of UniFilter-96 GF/C plates. The plates were sealed and incubated at 4 °C for 3 h. After incubation, they were washed 2 times with ice-cold wash buffer.
The cell membrane was diluted with assay buffer, and 330 µL was transferred to 96 round deep-well plates to reach a concentration of 10 µg/well. […] The plates were centrifuged at 1000 rpm for 30 s and then agitated at 600 rpm for 5 min (room temperature). The plates were sealed and incubated at 30 °C for 90 min. The incubation was stopped by vacuum filtration onto GF/C filter plates, followed by washing 4 times with ice-cold wash buffer. The plates were dried at 37 °C for 45 min. After the addition of 40 µL of scintillation cocktail, a Microbeta2 microplate counter was used to detect the radioactivity signals.

[5] = biological target: T3, CB2 receptor; assay: CB2 antagonist cAMP assay (HitHunter cAMP XS+), CP55,940 challenge; assay type: cell-based; conditions: for Emax: read-out: CB2 antagonist activity, % of the maximum effect of SR144528, highest tested concentration (12 µM), CP55,940 1 nM
Protocol: In summary, cells were seeded in a total volume of 20 µL (10,000 cells) into white-walled, 384-well microplates and incubated at 37 °C for the appropriate time prior to testing. […] The assay signal was generated through incubation with 20 μL cAMP XS+ ED/CL lysis cocktail for one hour, followed by incubation with 20 μL cAMP XS+ EA reagent for three hours at room temperature. Microplates were read following signal generation with a PerkinElmer Envision instrument for chemiluminescent signal detection.
as §2

[6] = biological target: T4, dopamine D2S receptor (Homo sapiens, UniProt P14416); assay: D2S agonist HitHunter cAMP XS+ assay; assay type: cell-based; set-up: Emax: dose or concentration left out as unconfirmed
T4 construct: host or cells: CHO-K1
T4 sequence (P14416 1-414 isoform P14416-2): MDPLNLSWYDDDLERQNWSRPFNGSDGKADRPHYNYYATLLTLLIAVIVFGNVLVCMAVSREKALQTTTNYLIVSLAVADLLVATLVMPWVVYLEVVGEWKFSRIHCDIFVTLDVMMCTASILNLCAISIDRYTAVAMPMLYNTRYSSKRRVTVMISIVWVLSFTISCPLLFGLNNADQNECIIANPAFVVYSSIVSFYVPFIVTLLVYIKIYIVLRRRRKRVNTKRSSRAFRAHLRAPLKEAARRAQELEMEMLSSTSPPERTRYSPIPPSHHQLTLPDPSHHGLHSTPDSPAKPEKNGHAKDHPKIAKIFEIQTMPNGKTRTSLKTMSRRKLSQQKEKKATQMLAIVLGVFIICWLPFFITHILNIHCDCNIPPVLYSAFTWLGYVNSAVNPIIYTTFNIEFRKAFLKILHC
Protocol: (§3) One hundred percent relative activity was normalized to maximum stimulation of endogenous agonists and 0% relative activity to compound vehicle control.
For the D2S agonist assay, cAMP CHO-K1 Hunter cell lines were expanded from freezer stocks according to standard procedures. The cell line manual was followed for cell growth (including cell culture media and supplementation, cell handling and preparation, etc.), test procedures, and signal detection.
as §1

[7] = biological target: T5, 5HT-1A receptor (Homo sapiens, UniProt P08908); assay: 5HT-1A agonist PathHunter β-arrestin assay; set-up: Emax: dose or concentration left out as unconfirmed; conditions: for Emax: CHO-K1, read-out: 5HT-1A agonism, % of the maximum response of serotonin
T5 sequence (P08908 1-422): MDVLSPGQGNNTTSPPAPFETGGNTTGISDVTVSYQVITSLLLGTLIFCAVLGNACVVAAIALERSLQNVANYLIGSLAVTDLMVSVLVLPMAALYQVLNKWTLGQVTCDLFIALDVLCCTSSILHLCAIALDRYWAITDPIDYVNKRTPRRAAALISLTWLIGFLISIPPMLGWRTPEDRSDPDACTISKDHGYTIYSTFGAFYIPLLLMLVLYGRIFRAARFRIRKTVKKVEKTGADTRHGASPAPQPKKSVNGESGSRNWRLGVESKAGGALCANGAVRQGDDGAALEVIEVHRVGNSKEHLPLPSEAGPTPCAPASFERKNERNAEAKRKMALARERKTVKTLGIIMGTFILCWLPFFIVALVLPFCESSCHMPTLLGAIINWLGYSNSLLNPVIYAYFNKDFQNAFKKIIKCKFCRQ
Description: as §3
For the 5HT-1A agonist assay, PathHunter® β-arrestin cells (CHO-K1) were expanded from freezer stocks according to standard procedures provided by Eurofins. The cell line manual was followed for cell growth (including cell culture media and supplementation, cell handling and preparation, etc.), test procedure, and signal detection.
In summary, cells were seeded at a total volume of 20 µL (10,000 cells) into white-walled, 384-well microplates and incubated at 37 °C for the appropriate time prior to testing. After preparing stock acetonitrile solution at a 1 mg/mL concentration of ligand, compound intermediate concentrations were achieved by a 10-point series of 3-fold compound serial dilutions in a compound dilution buffer in a separate dilution plate. The concentration of each dilution was prepared at 5× of the final screening concentration. […] Then, 12.5 μL Working Detection Solution was added, and the cells were incubated for 1 h at room temperature in the dark. The assay signal was generated through a single addition of 15 µL (50% v/v) of the PathHunter Detection reagent cocktail, followed by a one-hour incubation at room temperature. Microplates were read following signal generation with a PerkinElmer Envision instrument for chemiluminescent signal detection.

[8] = test system: mice; set-up: method as in PMID 31889124; conditions: doses 2.5 to 10 mg/kg; cited from earlier work

Row | Compound | Activity of MOR in GTP turnover rate assay [1] | Increase in the met-enkephalin internalization signal [2] | Emax [3] | Concentration at which CB1 antagonist activity above the baseline appeared [3] | Displacement of radiolabeled CP55940 at the CB2 binding site [4] | Emax [5] | Emax ([6]; CHO-K1, read-out: D2S agonist activity, % maximum response of dopamine) | EC50 [7] | Emax [7] | Met-enkephalin-induced mu-opioid internalization (in words) ([2]; 3 µM compound and 1 µM met-enkephalin) | IC50 ([3]; read-out: CB1 antagonist IC50 (not reached within tested range)) | IC50 ([5]; read-out: CB2 antagonist IC50 (not reached within tested concentrations)) | D2S agonism (in words) ([6]; within the tested concentration range (up to 12 µM)) | In vivo effects in mice [8]
1 | COc1ccc(C2SCCN2S(=O)(=O)c2ccc(Cl)cc2)cc1Br (stereo not drawn) [BMS-986122] | 166% | – | – | – | – | – | – | – | – | – | – | – | – | –
2 | C=C(C)[C@@H]1CCC(C)=C[C@H]1c1c(O)cc(CCCCC)cc1O [CBD, Cannabidiol, reference compound] | – | 18% | ~20% | 3 µM | approximately 50% | ~33% | 10.7% | > 12 µM | ~20% | – | – | – | – | –
3 | C=C(C)[C@@H]1CCC(C)=C[C@H]1c1c(O)cc(CCCCCCC)cc1O [CBDP, cannabidiphorol] | – | 37% | ~20% | 3 µM | approximately 50% | ~23% | – | > 12 µM | ~20% | significant increase | > 12 µM | > 12 µM | did not show any sign of agonism | –
4 | CCCCCCCc1cc(O)c2c(c1)OC(C)(C)[C@@H]1CCC(C)=C[C@@H]21 [Δ9-THCP, tetrahydrocannabiphorol] | – | – | – | – | – | – | – | – | – | – | – | – | – | induce THC-like hypomotility, analgesia, and catalepsy
